The source of these data is patent publication US20180340947A1, “INVOLVEMENT OF THE BUFO[…] THE DIAGNOSIS AND TREATMENT OF POST-TRAUMATIC STRESS DISORDER (PTSD)” (priority 2017, published 2018).

For assay [1] the following is noted: in vitro; cited from earlier work.
In another assay the test system is blood/brain barrier. The note with it: including disruption of the blood/brain barrier; cited from earlier work.
Assay [2] relates to traumatic brain injured animals. Put plainly: Urinary MBG excretion in sham and traumatic brain injured animals. Format: in vivo. An excerpt: There are estimated to be between 300,000 to 350,000 veterans of the Middle East conflicts who currently suffer from PTSD related to wartime service. However, there are no proven methods to diagnose and stage the results of both physical and psychological trauma leading to PTSD, nor are there successful preventative or treatment methods. The interest in these military-associated problems has been accelerated by their potential application also to concussion in civilian life, especially to amateur, collegiate, and professional sports. Thus far, no solution has been enunciated nor has been proven (Meier and Ivory, Jul. 3, 2015, The New York Times). […] 114. […] It has been determined that a circulating cardiac glycoside (or “cardiotonic steroid”) called marinobufagenin (MBG) (FIG. 1), acts as both an indicator and initiator of the inflammatory process involved in TBI (FIG. 1) (Shapiro et al., The American Society for Clinical Pharmacology and Therapeutics, Dallas, Tex., Mar. 2-5, 2011. ASCPT Annual Meeting Program Booklet, p. 78; Puschett et al., Medical Research Archives 2015, ISSN 2375-1924; Oliver et al., J Experimental Neuroscience 2015, 9:67-72). […]

The test system of assay [3] is GFAP-labeled astrocytes in cortex after impact acceleration injury. Put plainly: GFAP immuno-fluorescence of brain after impact acceleration injury (IAI). Format: in vivo. The note with it: RBG at 1 hour after IAI. As for the experimental part: FIGS. 2A-2C. Micrographs of GFAP (glial fibrillary acidic protein) immuno-fluorescence. GFAP antibody labels the intermediate filaments of most astrocytes in the brain. In the sham animals (FIG. 2A), a normal distribution of GFAP-labeled astrocytes is seen. At 24 hours after an impact acceleration injury (IAI; FIG. 2B), a noticeable scar is observed (arrows) in layers 2 and 3 of the cortex. There is also a patchy loss of GFAP-labeled astrocytes throughout cortex and the vasculature (arrowheads) appears damaged. The loss of GFAP immunoreactivity and the appearance of astrocyte hypertrophy are indicative of a neuroinflammatory response to injury. […] The RBG treatment also reduces the decrease in GFAP immunoreactivity and a greater proportion of GFAP-labeled astrocytes have a normal, rather than hypertrophied appearance.

Assay [4] relates to rodent brain contusion model. Nature of the assay: Rodent brain contusion model. Format: in vivo. The note with it: given 1 hour after the insult. An excerpt: MBG is elevated in other syndromes such as preeclampsia and traumatic brain injury. It has been shown that the administration of the antagonist of MBG, resibufagenin (RBG), is therapeutically effective. […] RBG antagonizes MBG activity and may be an effective treatment for hypertension, ARDS, traumatic brain injury, and preeclampsia. Certain embodiments are directed to treating a patient having elevated levels of MBG by administering an MBG antagonist or anti-MBG agent. In certain aspects the anti-MBG agent is resibufagenin (RBG).

Assay [5] relates to preeclampsia in animal models. The conditions noted are these: cited from earlier work.

For `C[C@]12CC[C@H](O)C[C@@]1(O)CC[C@@H]1[C@@H]2CC[C@]2(C)[C@@H](c3ccc(=O)oc3)C[C@H]3O[C@]132` [MBG, marinobufagenin], the Vasoconstrictor action entry in assay [1] is “acts in vitro as a vasoconstrictor”. Further, the Vascular leak entry in the assay on blood/brain barrier was “cause vascular leak”.

Regarding `C[C@]12CC[C@H](O)C[C@H]1CC[C@@H]1[C@@H]2CC[C@]2(C)[C@@H](c3ccc(=O)oc3)C[C@H]3O[C@]132` [RBG, resibufogenin], the “Urinary MBG excretion” value in assay [2] (TBI + RBG group, N = 10, sham 592.8 ± 79.3, TBI 1340.9 ± 308.5, P TBI vs. TBI + RBG = 0.02) was 475.3 ± 56.1. For the same compound, in assay [2] (animal model of TBI (FIG. 2, Table 1)), the “Antagonism of the effects of MBG” value is “antagonizes the effects of MBG”. Moreover, in assay [3] (IAI+RBG animals), the Glial scar entry is on record as “A glial scar was not observed”. Also, the “Alterations after IAI (glial scar, loss of GFAP immunoreactivity, astrocyte hypertrophy)” value in assay [3] (micrographs at 24 hours after IAI) is given as “most of these alterations are ameliorated”. In addition, in assay [4], the Tissue injury entry is on record as “amelioration of tissue injury”. Besides, the Preeclampsia entry in assay [5] is listed as “prevents preeclampsia”.
